Molecules are shown by their SMILES.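 Each compound was tested at five concentrations against cells in 96-well plates for 48 hours. GI50 = concentration required for 50% inhibition of growth.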 The source made the active and inactive calls. Rule as the data show it: active = GI50 up to about 1.1 µM and inactive = higher. Bounds are passed on as bounds.

Among the test systems are COLO 205; HL-60; NCI-H23; MCF7; LOX IMVI; BT-549; MDA-MB-435; HCC 2998; HOP-62; OVCAR-8; NCI-H226; T47D; NCI/ADR-RES; RPMI-8226; UO-31; SK-MEL-2; SF-539; SW-620; NCI-H522; ACHN.
Assay in all cases: NCI anticancer screen, dose series, 48 h

Regarding `O=C1N[C@H]2c3c(Cl)sc(Cl)c3C(=O)[C@H]2O1`, the GI50 in the test with COLO 205 was 14 µM (inactive); in the test on HL-60, 1.79 µM (inactive); in the test with NCI-H23, 10.5 µM (inactive); in the test on MCF7, 39.8 µM (inactive); in the test on LOX IMVI, 3.61 µM (inactive); in the test on BT-549, 22.3 µM (inactive). Besides, the GI50 was 14.3 µM (inactive) with MDA-MB-435; 5.46 µM (inactive) in the test on HCC 2998; 20.9 µM (inactive) with HOP-62; 4.31 µM (inactive) in the test on OVCAR-8; 17.9 µM (inactive) in the test with NCI-H226; 31.6 µM (inactive) in the test with T47D. Besides, the GI50 was 15.5 µM (inactive) with NCI/ADR-RES; 19.7 µM (inactive) in the test with RPMI-8226; 19.1 µM (inactive) with UO-31; 24 µM (inactive) in the test on SK-MEL-2; 9.68 µM (inactive) in the test with SF-539; 2.84 µM (inactive) with SW-620. The GI50 was 1.68 µM (inactive) with NCI-H522 and 13.4 µM (inactive) with ACHN.
With `CS(=O)(=O)c1nc(-c2cc3c(c(S(C)(=O)=O)n2)CCCC3)cc2c1CCCC2`, the GI50 with COLO 205 is > 100 µM (inactive); with HL-60, > 100 µM (inactive); in the test with NCI-H23, > 63 µM (inactive); with MCF7, > 100 µM (inactive); with LOX IMVI, > 62.4 µM (inactive); in the test on BT-549, > 43.2 µM (inactive). Further, the GI50 is > 100 µM (inactive) in the test with MDA-MB-435; > 100 µM (inactive) in the test on HCC 2998; 21 µM (inactive) in the test on HOP-62; > 35.4 µM (inactive) in the test on OVCAR-8; > 100 µM (inactive) in the test with NCI-H226; > 100 µM (inactive) with T47D. The GI50 was > 64.3 µM (inactive) in the test on NCI/ADR-RES; > 100 µM (inactive) in the test with RPMI-8226; 0.048 µM (active) in the test on UO-31; > 54.3 µM (inactive) with SK-MEL-2; > 65.2 µM (inactive) in the test on SF-539; > 100 µM (inactive) in the test with SW-620. The GI50 in the test with NCI-H522 is > 39.8 µM (inactive); with ACHN it was > 100 µM (inactive).
As for `c1ccc2c(c1)N=c1ccccc1=P21c2ccccc2Nc2ccccc21`, the GI50 with COLO 205 is 0.129 µM (active); in the test on HL-60, 0.186 µM (active); in the test on NCI-H23, 0.304 µM (active); in the test on MCF7, 0.457 µM (active); in the test with LOX IMVI it was 0.953 µM (active); with BT-549, 0.372 µM (active). Also, the GI50 was 0.39 µM (active) in the test on MDA-MB-435; 0.598 µM (active) with HCC 2998; 0.908 µM (active) with HOP-62; 0.521 µM (active) in the test on OVCAR-8; 0.577 µM (active) with NCI-H226; 0.192 µM (active) with T47D. In addition, the GI50 is 76 µM (inactive) in the test with NCI/ADR-RES; 0.156 µM (active) in the test on RPMI-8226; 7.1 µM (inactive) in the test on UO-31; 0.256 µM (active) in the test with SK-MEL-2; 0.619 µM (active) with SF-539; 0.405 µM (active) in the test with SW-620. Besides, the GI50 in the test on NCI-H522 is 0.216 µM (active); in the test on ACHN, 2.4 µM (inactive).
Take `CC1=C(CO)C(=O)O[C@@H]([C@@H](CO)[C@H]2CCC3C4C[C@@H](O)[C@@]5(O)CC=CC(=O)[C@]5(C)C4CC[C@@]32C)C1` (stereo not given in full): the GI50 in the test with COLO 205 was 30 µM (inactive); in the test with HL-60, 31.2 µM (inactive); in the test with NCI-H23, 67.9 µM (inactive); with MCF7, 50 µM (inactive); in the test with LOX IMVI, 38.5 µM (inactive); with BT-549 it was 26.4 µM (inactive). Moreover, the GI50 in the test with MDA-MB-435 was 38.5 µM (inactive); with HCC 2998 it was 29.2 µM (inactive); with HOP-62, 23.5 µM (inactive); with OVCAR-8, 73.1 µM (inactive); with NCI-H226 it was > 100 µM (inactive); in the test on T47D it was 86.3 µM (inactive). Moreover, the GI50 was > 100 µM (inactive) with NCI/ADR-RES; 34.3 µM (inactive) in the test on RPMI-8226; 24.4 µM (inactive) in the test on UO-31; 53.6 µM (inactive) with SK-MEL-2; 53.8 µM (inactive) in the test on SF-539; 29 µM (inactive) with SW-620. Further, the GI50 in the test on NCI-H522 was 39.2 µM (inactive); in the test with ACHN it was 36.4 µM (inactive).
On to `COc1cccc(-c2cc(=O)c3ccc(C)nc3[nH]2)c1`, for which the GI50 in the test with COLO 205 is 0.0277 µM (active); with HL-60, 0.0212 µM (active); in the test on NCI-H23, 0.214 µM (active); in the test with MCF7 it was 0.165 µM (active); in the test with LOX IMVI, 0.0596 µM (active); with BT-549 it was 0.299 µM (active). For the same compound, the GI50 is < 0.01 µM (active) in the test with MDA-MB-435; 0.0715 µM (active) in the test with HCC 2998; 0.0904 µM (active) in the test on HOP-62; 0.0847 µM (active) in the test with OVCAR-8; 0.0434 µM (active) in the test with NCI-H226; 57.9 µM (inactive) with T47D. Besides, the GI50 was 0.0594 µM (active) in the test on NCI/ADR-RES; 0.034 µM (active) with RPMI-8226; 0.0752 µM (active) with UO-31; 0.0541 µM (active) in the test with SK-MEL-2; 0.0388 µM (active) with SF-539; 0.0383 µM (active) with SW-620. Moreover, the GI50 was 0.0448 µM (active) in the test on NCI-H522 and 0.0538 µM (active) in the test on ACHN.

These data come from ChEMBL document CHEMBL1201862, “PubChem BioAssay data set” (2004).
